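Exposure lasted 48 hours, with cells grown in 96-well plates and compounds tested at five concentrations. GI50 = concentration required for 50% inhibition of growth.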 The source made the active and inactive calls. No stated cut-off is given here; in the data, active = GI50 up to about 1.1 µM and inactive = higher.
What was measured:
Test in all cases: growth of human tumour cells (NCI), 48 h
[1] = system: MDA-N
[2] = system: ACHN
[3] = system: SW-620
[4] = system: SF-539
[5] = system: MCF7
[6] = system: OVCAR-5
[7] = system: M14
[8] = system: SK-OV-3
[9] = system: SF-295
[10] = system: PC-3
[11] = system: NCI-H522
[12] = system: MOLT-4
[13] = system: HCT-116
[14] = system: RXF 393
[15] = system: SR
[16] = system: HL-60
[17] = system: HOP-62
[18] = system: SNB-75
[19] = system: A498
[20] = system: NCI-H460

Measured: GI50

Cc1ccc2nc(CC(=O)c3ccc4ccccc4c3)c(O)nc2c1
inactive: [1] > 100 µM | [2] > 100 µM | [3] > 100 µM | [4] > 100 µM | [5] > 100 µM | [6] > 100 µM | [7] > 100 µM | [8] > 100 µM | [9] > 100 µM | [10] > 100 µM | [11] > 100 µM | [12] > 100 µM | [13] > 100 µM | [14] > 100 µM | [15] > 100 µM | [16] > 100 µM | [17] > 100 µM | [18] > 100 µM | [19] > 100 µM | [20] > 100 µM

O=C(NCCCCCCNC(=O)c1cc(-c2ccccc2)nc2ccccc12)c1cc(-c2ccccc2)nc2ccccc12
inactive: [1] > 100 µM | [2] > 100 µM | [3] > 100 µM | [4] > 100 µM | [5] > 100 µM | [6] > 100 µM | [7] > 100 µM | [8] > 100 µM | [9] 84.7 µM | [10] > 100 µM | [11] > 100 µM | [12] > 100 µM | [13] > 100 µM | [14] > 100 µM | [15] > 100 µM | [16] > 100 µM | [17] 54.3 µM | [18] 33.3 µM | [19] > 100 µM | [20] > 100 µM

CCCCCc1c(CCCC)c(=O)[nH]c2cc(CNCC(OC)OC)ccc12
inactive: [1] 11.7 µM | [2] 14.4 µM | [3] 5.79 µM | [4] 14.8 µM | [5] 12.9 µM | [6] 14.2 µM | [7] 2.81 µM | [8] 18.1 µM | [9] 17.2 µM | [10] 12.2 µM | [11] 17.6 µM | [12] 5.33 µM | [13] 7.11 µM | [14] 12 µM | [15] 6.9 µM | [16] 6 µM | [17] 18.2 µM | [18] 15.6 µM | [19] 15.1 µM | [20] 10.5 µM

CC/C(Cl)=N\OC(=O)Nc1ccc(C#N)cc1
inactive: [1] 16.3 µM | [2] 14.3 µM | [3] 3.28 µM | [4] 16.6 µM | [5] 15.1 µM | [6] 15.9 µM | [7] 12.3 µM | [8] 4.94 µM | [9] 18.7 µM | [10] 16.7 µM | [11] 1.48 µM | [12] 2.28 µM | [13] 14.6 µM | [14] 8.75 µM | [15] 3.13 µM | [16] 2.01 µM | [17] 17.2 µM | [18] 14.9 µM | [19] 16.6 µM | [20] 19.5 µM

C=C1C(=O)O[C@@H]2C[C@]3(C)CC[C@]4(C)[C@H](CC[C@@H]5[C@@]6(C)CCC(=O)C(C)(C)[C@@H]6CC[C@]54C)[C@H]3[C@H]12 [OCHRACEOLIDE A]
inactive: [1] 15.3 µM | [2] 11.9 µM | [3] 11.6 µM | [4] 21.7 µM | [5] 4.81 µM | [6] 18.4 µM | [7] 14.6 µM | [8] 24 µM | [9] 17.8 µM | [10] 14.7 µM | [11] 7.33 µM | [12] 2.31 µM | [13] 13.6 µM | [14] 16.6 µM | [15] 14.9 µM | [16] 1.63 µM | [17] 23.5 µM | [18] 20.7 µM | [19] 21 µM | [20] 18.5 µM
